Where two headings read alike, the source gives them in different places.
Legend:
[1] = tested on: Abutilon theophrasti (ABUTH), velvetleaf; assay: Postemergence herbicide evaluation, growth of Abutilon theophrasti (ABUTH); assay type: in vivo; conditions: Abutilon theophrasti, post-emergence, percent reduction in plant size relative to untreated control, read-out: AVE. ABUTH; for pest or weed control at 280 g/ha: 280 g ae/ha; for pest or weed control at 560 g/ha: 560 g ae/ha
[2] = tested on: Chenopodium album (CHEAL), common lambsquarters; assay: Postemergence herbicide evaluation, growth of Chenopodium album (CHEAL); assay type: in vivo; conditions: Chenopodium album, post-emergence, percent reduction in plant size relative to untreated control, read-out: Ave. CHEAL; for pest or weed control at 280 g/ha: 280 g ae/ha; for pest or weed control at 560 g/ha: 560 g ae/ha
[3] = tested on: Ambrosia artemisiifolia (AMBEL), common ragweed; assay: Postemergence herbicide evaluation, growth of Ambrosia artemisiifolia (AMBEL); assay type: in vivo; conditions: Ambrosia artemisiifolia, post-emergence, percent reduction in plant size relative to untreated control, read-out: AVE. AMBEL; for pest or weed control at 280 g/ha: 280 g ae/ha; for pest or weed control at 560 g/ha: 560 g ae/ha
[4] = tested on: Amaranthus rudis (AMATA), tall water hemp; assay: Postemergence herbicide evaluation, growth of Amaranthus rudis (AMATA); assay type: in vivo; conditions: Amaranthus tuberculatus, post-emergence, percent reduction in plant size relative to untreated control, read-out: Ave. AMATA; for pest or weed control at 280 g/ha: 280 g ae/ha; for pest or weed control at 560 g/ha: 560 g ae/ha
[5] = Volatility of compounds measured by thermogravimetric analysis (TGA); assay type: physicochemical
[6] = tested on: glyphosate resistant Conyza canadensis (L.) (ERICA), horseweed; assay: Postemergence herbicide evaluation, growth of Conyza canadensis (ERICA); assay type: in vivo; conditions: Erigeron canadensis, post-emergence, percent reduction in plant size relative to untreated control, read-out: Ave. ERICA; for pest or weed control at 280 g/ha: 280 g ae/ha; for pest or weed control at 560 g/ha: 560 g ae/ha
[7] = tested on: weeds (ABUTH, AMATA, AMBEL, CHEAL, ERICA); assay: Postemergence herbicide evaluation, overall average % weed control across ABUTH, AMATA, AMBEL, CHEAL, ERICA; assay type: in vivo; conditions: post-emergence, average over the five weeds, read-out: Overall Ave % Weed Control; for pest or weed control at 280 g/ha: 280 g ae/ha; for pest or weed control at 560 g/ha: 560 g ae/ha

## O=C(COc1ccc(Cl)cc1Cl)ONC(=O)c1ccc(C(=O)NOC(=O)COc2ccc(Cl)cc2Cl)cc1 [Compound B4]
[1]; 168 h, 7 DAA
  pest or weed control at 280 g/ha: 70%
  pest or weed control at 560 g/ha: 80%
[1]; 336 h, 14 DAA
  pest or weed control at 280 g/ha: 78%
  pest or weed control at 560 g/ha: 73%
[1]; 504 h, 21 DAA
  pest or weed control at 280 g/ha: 83%
  pest or weed control at 560 g/ha: 84%
[2]; 168 h, 7 DAA
  pest or weed control at 280 g/ha: 63%
  pest or weed control at 560 g/ha: 63%
[2]; 336 h, 14 DAA
  pest or weed control at 280 g/ha: 70%
  pest or weed control at 560 g/ha: 68%
[2]; 504 h, 21 DAA
  pest or weed control at 280 g/ha: 75%
  pest or weed control at 560 g/ha: 65%
[3]; 168 h, 7 DAA
  pest or weed control at 280 g/ha: 58%
  pest or weed control at 560 g/ha: 65%
[3]; 336 h, 14 DAA
  pest or weed control at 280 g/ha: 88%
  pest or weed control at 560 g/ha: 84%
[3]; 504 h, 21 DAA
  pest or weed control at 280 g/ha: 95%
  pest or weed control at 560 g/ha: 87%
[4]; 168 h, 7 DAA
  pest or weed control at 280 g/ha: 68%
  pest or weed control at 560 g/ha: 70%
[4]; 336 h, 14 DAA
  pest or weed control at 280 g/ha: 68%
  pest or weed control at 560 g/ha: 78%
[4]; 504 h, 21 DAA
  pest or weed control at 280 g/ha: 65%
  pest or weed control at 560 g/ha: 68%
[5]
  TGA Data (rate of weight loss, volatility): 0.3 µg/min
[6]; 168 h, 7 DAA
  pest or weed control at 280 g/ha: 68%
  pest or weed control at 560 g/ha: 68%
[6]; 336 h, 14 DAA
  pest or weed control at 280 g/ha: 85%
  pest or weed control at 560 g/ha: 95%
[6]; 504 h, 21 DAA
  pest or weed control at 280 g/ha: 99%
  pest or weed control at 560 g/ha: 100%
[7]; 168 h, 7 DAA
  pest or weed control at 280 g/ha: 65%
  pest or weed control at 560 g/ha: 69%
[7]; 336 h, 14 DAA
  pest or weed control at 280 g/ha: 78%
  pest or weed control at 560 g/ha: 79%
[7]; 504 h, 21 DAA
  pest or weed control at 280 g/ha: 83%
  pest or weed control at 560 g/ha: 81%

## N/C(=N\OC(=O)COc1ccc(Cl)cc1Cl)c1ccc(/C(N)=N/OC(=O)COc2ccc(Cl)cc2Cl)cc1 [Compound B5, (1,4)—N°1, N°4-Bis(2-(2,4-dichlorophenoxy)acetoxy)terephthalimidamide]
[1]; 168 h, 7 DAA
  pest or weed control at 280 g/ha: 0%
  pest or weed control at 560 g/ha: 3%
[1]; 336 h, 14 DAA
  pest or weed control at 280 g/ha: 10%
  pest or weed control at 560 g/ha: 3%
[1]; 504 h, 21 DAA
  pest or weed control at 280 g/ha: 10%
  pest or weed control at 560 g/ha: 0%
[2]; 168 h, 7 DAA
  pest or weed control at 280 g/ha: 15%
  pest or weed control at 560 g/ha: 13%
[2]; 336 h, 14 DAA
  pest or weed control at 280 g/ha: 20%
  pest or weed control at 560 g/ha: 15%
[2]; 504 h, 21 DAA
  pest or weed control at 280 g/ha: 40%
  pest or weed control at 560 g/ha: 13%
[3]; 168 h, 7 DAA
  pest or weed control at 280 g/ha: 18%
  pest or weed control at 560 g/ha: 15%
[3]; 336 h, 14 DAA
  pest or weed control at 280 g/ha: 8%
  pest or weed control at 560 g/ha: 15%
[3]; 504 h, 21 DAA
  pest or weed control at 280 g/ha: 5%
  pest or weed control at 560 g/ha: 18%
[4]; 168 h, 7 DAA
  pest or weed control at 280 g/ha: 25%
  pest or weed control at 560 g/ha: 25%
[4]; 336 h, 14 DAA
  pest or weed control at 280 g/ha: 0%
  pest or weed control at 560 g/ha: 18%
[4]; 504 h, 21 DAA
  pest or weed control at 280 g/ha: 15%
  pest or weed control at 560 g/ha: 33%
[5]
  TGA Data (rate of weight loss, volatility): 0.1 µg/min
[6]; 168 h, 7 DAA
  pest or weed control at 280 g/ha: 5%
  pest or weed control at 560 g/ha: 25%
[6]; 336 h, 14 DAA
  pest or weed control at 280 g/ha: 30%
  pest or weed control at 560 g/ha: 35%
[6]; 504 h, 21 DAA
  pest or weed control at 280 g/ha: 15%
  pest or weed control at 560 g/ha: 28%
[7]; 168 h, 7 DAA
  pest or weed control at 280 g/ha: 13%
  pest or weed control at 560 g/ha: 16%
[7]; 336 h, 14 DAA
  pest or weed control at 280 g/ha: 14%
  pest or weed control at 560 g/ha: 17%
[7]; 504 h, 21 DAA
  pest or weed control at 280 g/ha: 17%
  pest or weed control at 560 g/ha: 18%

## C/C(C/C(C)=N/OC(=O)COc1ccc(Cl)cc1Cl)=N\OC(=O)COc1ccc(Cl)cc1Cl [Compound B6, (2,4)-Pentane-2,4-dione O,O-di(2-(2,4-dichlorophenoxy)acetyl) dioxime]
[1]; 168 h, 7 DAA
  pest or weed control at 280 g/ha: 78%
  pest or weed control at 560 g/ha: 83%
[1]; 336 h, 14 DAA
  pest or weed control at 280 g/ha: 90%
  pest or weed control at 560 g/ha: 86%
[1]; 504 h, 21 DAA
  pest or weed control at 280 g/ha: 92%
  pest or weed control at 560 g/ha: 89%
[2]; 168 h, 7 DAA
  pest or weed control at 280 g/ha: 70%
  pest or weed control at 560 g/ha: 70%
[2]; 336 h, 14 DAA
  pest or weed control at 280 g/ha: 88%
  pest or weed control at 560 g/ha: 78%
[2]; 504 h, 21 DAA
  pest or weed control at 280 g/ha: 93%
  pest or weed control at 560 g/ha: 75%
[3]; 168 h, 7 DAA
  pest or weed control at 280 g/ha: 68%
  pest or weed control at 560 g/ha: 70%
[3]; 336 h, 14 DAA
  pest or weed control at 280 g/ha: 93%
  pest or weed control at 560 g/ha: 93%
[3]; 504 h, 21 DAA
  pest or weed control at 280 g/ha: 96%
  pest or weed control at 560 g/ha: 100%
[4]; 168 h, 7 DAA
  pest or weed control at 280 g/ha: 75%
  pest or weed control at 560 g/ha: 73%
[4]; 336 h, 14 DAA
  pest or weed control at 280 g/ha: 75%
  pest or weed control at 560 g/ha: 80%
[4]; 504 h, 21 DAA
  pest or weed control at 280 g/ha: 75%
  pest or weed control at 560 g/ha: 83%
[5]
  TGA Data (rate of weight loss, volatility): 3.7 µg/min
[6]; 168 h, 7 DAA
  pest or weed control at 280 g/ha: 68%
  pest or weed control at 560 g/ha: 75%
[6]; 336 h, 14 DAA
  pest or weed control at 280 g/ha: 93%
  pest or weed control at 560 g/ha: 88%
[6]; 504 h, 21 DAA
  pest or weed control at 280 g/ha: 98%
  pest or weed control at 560 g/ha: 99%
[7]; 168 h, 7 DAA
  pest or weed control at 280 g/ha: 72%
  pest or weed control at 560 g/ha: 74%
[7]; 336 h, 14 DAA
  pest or weed control at 280 g/ha: 88%
  pest or weed control at 560 g/ha: 85%
[7]; 504 h, 21 DAA
  pest or weed control at 280 g/ha: 91%
  pest or weed control at 560 g/ha: 89%

Source: patent publication US20260042731A1, “(2,4-DICHLOROPHENOXY)ACETIC ACID ANALOGS” (CORTEVA AGRISCIENCE LLC, priority 2022, published 2026)
